Source: US20240383898A1, “PYRIDO RING COMPOUND, PREPARATION METHOD THEREFOR, INTERMEDIATE, COMPOSITION, AND APPLICATION” (YIYOU BIOTECH (SHANGHAI) CO., LTD, priority 2021, published 2024)

What was measured:
[1] = biological target: T1, JAK1 (Homo sapiens, UniProt P23458); test: In vitro activity test of JAK1 kinase (Caliper EZ Reader conversion assay); assay type: biochemical; details: enzyme activity, 10 concentrations from 1000 nM, 3-fold dilution
T1 construct: purchased Carna 08-114
Description: (§1) In Vitro Activity Test of JAK1 and JAK2 Kinases
(§2) • Centrifuge (manufacturer: Eppendorf, model: 5430) • ELISA Instrument (Manufacturer: Perkin Elmer, Model: Caliper EZ Reader 1I) • Echo 550 (Manufacturer: Labcyte, Model: Echo 550)
(§3) (1) Prepare 1 Kinase buffer.
(§4) (2) Compound concentration gradient preparation: The test compound was tested at 1000 nM, 3-fold dilution, 10 concentrations, two-well assay, and configured to a 100-fold final concentration in a 384-well plate. 250 nl of the test compound was then transferred to the 384 reaction plate using Echo550. 250 nl of 100% DMSO was added to each of the negative and positive control wells.
(§5) (3) Prepare 2.5 times the final concentration of kinase solution with 1×Kinase buffer.
(§6) (4) Add 10 μL of 2.5 times the final concentration of kinase solution to the compound wells and 10 μL of 1×Kinase buffer to the negative control wells.
(§7) (5) Centrifuge at 1000 rpm for 30 seconds, mix well with shaking, and incubate at room temperature for 10 minutes.
(§8) (6) Prepare a 25/15-fold final concentration of mixture of ATP and Kinase substrate with 1×Kinase buffer.
(§9) (7) Add 15 μL of a mixture of 25/15 times the final concentration of ATP and substrate to start the reaction.
(§10) (8) Centrifuge the 384-well plate at 1000 rpm for 30 seconds, mix well with shaking, and incubate at room temperature for an appropriate amount of time.
(§11) (9) Stop the kinase reaction by adding 30 μL of termination solution, centrifuge at 1000 rpm for 30 seconds, and mix well with shaking.
(§12) (10) Read the conversion rate with Caliper EZ Reader.
(§13) where: Conversion %_sample is the conversion rate reading of the sample-, Conversion %_min: the average value of the negative control wells, representing the conversion reading of the wells without enzyme activity: Conversion %-max: the average value of the positive control wells, representing the conversion reading of the wells without compound inhibition.
(§14) The log value of concentration was used as the X-axis and the percentage inhibition as the Y-axis, and the function of the analytical software GraphPad Prism 5; log(inhibitor) vs. response -Variable slope, was used to lit dose-effect curves to obtain the IC50) values of each compound on enzyme activity.
(§15) The formula is Y=Bottom+(Top-Bottom)/(1+10^((LogIC50-X)*HillSlope))
(§16) The 1C50 data are specified in Table 1.

[2] = biological target: T2, JAK2 (Homo sapiens, UniProt O60674); test: In vitro activity test of JAK2 kinase (Caliper EZ Reader conversion assay); assay type: biochemical; details: enzyme activity, 10 concentrations from 1000 nM, 3-fold dilution
T2 construct: purchased Carna 08-045
T2 sequence (O60674 whole entry, species assumed): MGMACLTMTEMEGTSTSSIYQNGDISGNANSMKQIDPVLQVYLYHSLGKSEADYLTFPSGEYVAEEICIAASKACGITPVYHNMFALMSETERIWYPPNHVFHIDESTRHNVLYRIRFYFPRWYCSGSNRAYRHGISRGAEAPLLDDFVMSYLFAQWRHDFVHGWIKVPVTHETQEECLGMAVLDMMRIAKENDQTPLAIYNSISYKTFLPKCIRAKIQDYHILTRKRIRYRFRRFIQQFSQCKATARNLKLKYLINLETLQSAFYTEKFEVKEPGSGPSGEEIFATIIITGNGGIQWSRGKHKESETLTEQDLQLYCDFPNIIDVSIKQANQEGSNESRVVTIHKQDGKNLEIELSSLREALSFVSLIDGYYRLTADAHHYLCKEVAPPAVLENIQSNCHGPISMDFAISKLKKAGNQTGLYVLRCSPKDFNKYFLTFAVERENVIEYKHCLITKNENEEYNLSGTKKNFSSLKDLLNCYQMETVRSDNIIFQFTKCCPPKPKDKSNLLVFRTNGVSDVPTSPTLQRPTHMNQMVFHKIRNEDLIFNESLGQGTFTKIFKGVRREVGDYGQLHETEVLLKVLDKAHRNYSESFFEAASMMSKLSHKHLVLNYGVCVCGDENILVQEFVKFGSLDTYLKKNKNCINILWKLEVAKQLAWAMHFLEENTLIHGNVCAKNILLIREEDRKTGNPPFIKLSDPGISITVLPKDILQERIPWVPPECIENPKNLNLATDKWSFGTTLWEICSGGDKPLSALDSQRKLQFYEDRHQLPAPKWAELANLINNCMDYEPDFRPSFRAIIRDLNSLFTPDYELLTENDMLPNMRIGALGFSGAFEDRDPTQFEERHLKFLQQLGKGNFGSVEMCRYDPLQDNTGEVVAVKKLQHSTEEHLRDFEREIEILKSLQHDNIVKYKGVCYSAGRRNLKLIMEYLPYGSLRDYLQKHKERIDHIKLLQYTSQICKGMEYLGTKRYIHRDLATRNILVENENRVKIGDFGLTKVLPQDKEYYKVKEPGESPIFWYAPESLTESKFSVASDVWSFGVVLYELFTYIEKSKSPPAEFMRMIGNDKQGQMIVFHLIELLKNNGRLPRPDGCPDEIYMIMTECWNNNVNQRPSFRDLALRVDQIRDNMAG
Description: as §1, §2, §3, §4, §5, §6, §7, §8, §9, §10, §11, §12, §13, §14, §15, §16

T1 sequence (P23458 whole entry, species assumed): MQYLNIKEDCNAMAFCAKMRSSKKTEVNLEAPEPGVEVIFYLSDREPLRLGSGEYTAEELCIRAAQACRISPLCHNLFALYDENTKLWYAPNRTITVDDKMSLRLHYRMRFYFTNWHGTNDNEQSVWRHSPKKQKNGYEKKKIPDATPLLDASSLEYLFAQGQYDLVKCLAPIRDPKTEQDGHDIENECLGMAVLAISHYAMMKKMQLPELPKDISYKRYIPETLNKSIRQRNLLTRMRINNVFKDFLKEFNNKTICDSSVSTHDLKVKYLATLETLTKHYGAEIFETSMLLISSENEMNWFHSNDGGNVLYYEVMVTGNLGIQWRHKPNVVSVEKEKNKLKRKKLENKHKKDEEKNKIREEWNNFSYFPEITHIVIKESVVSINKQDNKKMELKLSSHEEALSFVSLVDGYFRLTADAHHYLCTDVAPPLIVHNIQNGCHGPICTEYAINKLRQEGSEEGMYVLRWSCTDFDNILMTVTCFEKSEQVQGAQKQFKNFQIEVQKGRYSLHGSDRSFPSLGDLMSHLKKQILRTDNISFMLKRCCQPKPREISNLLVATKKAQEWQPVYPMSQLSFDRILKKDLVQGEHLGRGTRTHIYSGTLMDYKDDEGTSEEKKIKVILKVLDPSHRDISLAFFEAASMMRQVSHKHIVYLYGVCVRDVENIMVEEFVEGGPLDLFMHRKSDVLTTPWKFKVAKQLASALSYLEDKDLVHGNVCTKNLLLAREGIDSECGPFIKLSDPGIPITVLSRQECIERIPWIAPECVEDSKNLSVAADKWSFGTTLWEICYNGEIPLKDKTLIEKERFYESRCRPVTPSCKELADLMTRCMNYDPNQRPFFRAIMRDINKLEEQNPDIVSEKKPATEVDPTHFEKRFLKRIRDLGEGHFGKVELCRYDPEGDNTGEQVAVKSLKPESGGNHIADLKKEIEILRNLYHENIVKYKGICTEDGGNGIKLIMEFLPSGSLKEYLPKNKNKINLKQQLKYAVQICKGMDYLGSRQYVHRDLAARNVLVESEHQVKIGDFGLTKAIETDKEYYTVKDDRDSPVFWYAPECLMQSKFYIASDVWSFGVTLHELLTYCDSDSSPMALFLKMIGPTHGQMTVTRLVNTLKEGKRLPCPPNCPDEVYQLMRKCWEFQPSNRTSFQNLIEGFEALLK

| IC50 [1] | IC50 [2] | SMILES |
| --- | --- | --- |
| 10 to 100 nM | 100 to 1000 nM | CCCS(=O)(=O)N1CCC(n2c([C@@H](C)O)nc3cnc4[nH]ccc4c32)C1 (stereo partly drawn) [LXS05, (1R)-1-(1-(1-(propylsulfonyl)pyrrolidin-3-yl)-1,6-dihydroimidazo[4,5-d]pyrrolo[2,3-b]pyridin-2-yl)ethan-1-ol] |
| 10 to 100 nM | 100 to 1000 nM | CCCCS(=O)(=O)N1CCC(n2c([C@@H](C)O)nc3cnc4[nH]ccc4c32)C1 (stereo partly drawn) [LXS06, (1R)-1-(1-(1-(butylsulfonyl)pyrrolidin-3-yl)-1,6-dihydroimidazo[4,5-d]pyrrolo[2,3-b]pyridin-2-yl)ethan-1-ol] |
| 100 to 1000 nM | 100 to 1000 nM | C[C@@H](O)c1nc2cnc3[nH]ccc3c2n1C1CCN(S(=O)(=O)c2ccccc2F)C1 (stereo partly drawn) [LXS07, (1R)-1-(1-(1-((2-fluorophenyl)sulfonyl)pyrrolidin-3-yl)-1,6-dihydroimidazo[4,5-d]pyrrolo[2,3-b]pyridin-2-yl)ethan-1-ol] |
| 100 to 1000 nM | 100 to 1000 nM | Cc1ccc(S(=O)(=O)N2CCC(n3c([C@@H](C)O)nc4cnc5[nH]ccc5c43)C2)cc1 (stereo partly drawn) [LXS08, (1R)-1-(1-(1-tosylpyrrolidin-3-yl)-1,6-dihydroimidazo[4,5-d]pyrrolo[2,3-b]pyridin-2-yl)ethan-1-ol] |
| 100 to 1000 nM | > 1000 nM | C[C@@H](O)c1nc2cnc3[nH]ccc3c2n1C1CCN(S(=O)(=O)c2ccc(-c3ccccc3)cc2)C1 (stereo partly drawn) [LXS09, (1R)-1-(1-(1-([1,1′-biphenyl]-4-ylsulfonyl)pyrrolidin-3-yl)-1,6-dihydroimidazo[4,5-d]pyrrolo[2,3-b]pyridin-2-yl)ethan-1-ol] |
| 100 to 1000 nM | > 1000 nM | C[C@@H](O)c1nc2cnc3[nH]ccc3c2n1C1CCN(S(=O)(=O)c2ccc3ccccc3c2)C1 (stereo partly drawn) [LXS10, (1R)-1-(1-(1-(naphthalen-2-ylsulfonyl)pyrrolidin-3-yl)-1,6-dihydroimidazo[4,5-d]pyrrolo[2,3-b]pyridin-2-yl)ethan-1-ol] |
| 10 to 100 nM | 100 to 1000 nM | C[C@@H](O)c1nc2cnc3[nH]ccc3c2n1C1CCN(S(=O)(=O)c2ccc(OC(F)(F)F)cc2)C1 (stereo partly drawn) [LXS11, (1R)-1-(1-(1-((4-(trifluoromethoxy)phenyl)sulfonyl)pyrrolidin-3-yl)-1,6-dihydroimidazo[4,5-d]pyrrolo[2,3-b]pyridin-2-yl)ethan-1-ol] |
| 10 to 100 nM | 100 to 1000 nM | C[C@@H](O)c1nc2cnc3[nH]ccc3c2n1C1CCN(S(=O)(=O)c2cccs2)C1 (stereo partly drawn) [LXS12, (1R)-1-(1-(1-(thiophen-2-ylsulfonyl)pyrrolidin-3-yl)-1,6-dihydroimidazo[4,5-d]pyrrolo[2,3-b]pyridin-2-yl)ethan-1-ol] |
| 100 to 1000 nM | 10 to 100 nM | CCS(=O)(=O)N1CC(CC#N)(n2cc(-n3c(-c4ccc(CO)o4)nc4cnc5[nH]ccc5c43)cn2)C1 [LXS13, 2-(1-(ethylsulfonyl)-3-(4-(2-(5-(hydroxymethyl)furan-2-yl)imidazo[4,5-d]pyrrolo[2,3-b]pyridin-1(6H)-yl)-1H-pyrazol-1-yl)azetidin-3-yl)acetonitrile] |
| 100 to 1000 nM | 10 to 100 nM | CCCCS(=O)(=O)N1CC(CC#N)(n2cc(-n3c(-c4ccc(CO)o4)nc4cnc5[nH]ccc5c43)cn2)C1 [LXS15, 2-(1-(butylsulfonyl)-3-(4-(2-(5-(hydroxymethyl)furan-2-yl)imidazo[4,5-d]pyrrolo[2,3-b]pyridin-1(6H)-yl)-1H-pyrazol-1-yl)azetidin-3-yl)acetonitrile] |
| 10 to 100 nM | 10 to 100 nM | CCCS(=O)(=O)N1CCC(n2c(-c3ccc(CO)o3)nc3cnc4[nH]ccc4c32)C1 (stereo not drawn) [LXS16] |
| 10 to 100 nM | 10 to 100 nM | O=C(C1CC1)N1CCC(n2c(-c3ccc(CO)o3)nc3cnc4[nH]ccc4c32)C1 (stereo not drawn) [LXS17, Cyclopropyl(3-(2-(5-(hydroxymethyl)furan-2-yl)imidazo[4,5-d]pyrrolo[2,3-b]pyridin-1(6H)-yl)pyrrolidin-1-yl) methanone] |
| 10 to 100 nM | 10 to 100 nM | CCCS(=O)(=O)N1CCC(n2c(-c3ncc[nH]3)nc3cnc4[nH]ccc4c32)C1 (stereo not drawn) [LXS18, 2-(1H-imidazol-2-yl)-1-(1-(propylsulfonyl)pyrrolidin-3-yl)-1,6-dihydroimidazo[4,5-d]pyrrolo[2,3-b]pyridine] |
| 10 to 100 nM | 10 to 100 nM | O=S(=O)(N1CCC(n2c(-c3ncc[nH]3)nc3cnc4[nH]ccc4c32)C1)C(F)(F)F (stereo not drawn) [LXS19, 2-(1H-imidazol-2-yl)-1-(1-((trifluoromethyl)sulfonyl)pyrrolidin-3-yl)-1,6-dihydroimidazo[4,5-d]pyrrolo[2,3-b]pyridine] |
| 100 to 1000 nM | 100 to 1000 nM | CCCS(=O)(=O)N1CCC(n2c(-c3ccccc3O)nc3cnc4[nH]ccc4c32)C1 (stereo not drawn) [LXS30, 2-(1-(1-(propylsulfonyl)pyrrolidin-3-yl)-1,6-dihydroimidazo[4,5-d]pyrrolo[2,3-b]pyridin-2-yl)phenol] |
| 100 to 1000 nM | 100 to 1000 nM | CCCS(=O)(=O)N1CCC(n2c(-c3ccc(O)cc3O)nc3cnc4[nH]ccc4c32)C1 (stereo not drawn) [LXS31, 4-(1-(1-(Propylsulfonyl)pyrrolidin-3-yl)-1,6-dihydroimidazo[4,5-d]pyrrolo[2,3-b]pyridin-2-yl)benzene-1,3-diol] |
| 10 to 100 nM | < 10 nM | CCCS(=O)(=O)N1CCC(n2c(-c3cccc(O)c3)nc3cnc4[nH]ccc4c32)C1 (stereo not drawn) [LXS32, 3-(1-(1-(propylsulfonyl)pyrrolidin-3-yl)-1,6-dihydroimidazo[4,5-d]pyrrolo[2,3-b]pyridin-2-yl)phenol] |
| 10 to 100 nM | 10 to 100 nM | C=CC(=O)N1CCC(n2c(-c3ccc(O)cc3O)nc3cnc4[nH]ccc4c32)C1 (stereo not drawn) [LXS33, 1-(3-(2-(2,4-Dihydroxyphenyl)imidazo[4,5-d]pyrrolo[2,3-b]pyridin-1(6H)-yl)pyrrolidin-1-yl)prop-2-en-1-one] |
| 100 to 1000 nM | 100 to 1000 nM | O=C(NCC(F)(F)F)N1CCC(n2c(-c3cccc(O)c3)nc3cnc4[nH]ccc4c32)C1 (stereo not drawn) [LXS34, 3-(2-(3-Hydroxyphenyl)imidazo[4,5-d]pyrrolo[2,3-b]pyridin-1(6H)-yl)-N-(2,2,2-trifluoroethyl)pyrrolidine-1-carboxamide] |
| 10 to 100 nM | 10 to 100 nM | O=S(=O)(C1CC1)N1CCC(n2c(-c3ccc(CO)o3)nc3cnc4[nH]ccc4c32)C1 (stereo not drawn) [LXS45, (5-(1-(1-(cyclopropylsulfonyl)pyrrolidin-3-yl)-1,6-dihydroimidazo[4,5-d]pyrrolo[2,3-b]pyridin-2-yl)furan-2-yl)methanol] |
| 10 to 100 nM | < 10 nM | N#CCCn1cc(-n2c(-c3ccc(CO)o3)nc3cnc4[nH]ccc4c32)cn1 [LXS46, 3-(4-(2-(5-(Hydroxymethyl)furan-2-yl)imidazo[4,5-d]pyrrolo[2,3-b]pyridin-1(6H)-yl)-1H-pyrazol-1-yl)propanenitrile] |
| 100 to 1000 nM | 100 to 1000 nM | CCCS(=O)(=O)N1CCC(n2c(-c3cccnc3N)nc3cnc4[nH]ccc4c32)C1 (stereo not drawn) [LXS47, 3-(1-(1-(propylsulfonyl)pyrrolidin-3-yl)-1,6-dihydroimidazo[4,5-d]pyrrolo[2,3-b]pyridin-2-yl)pyridin-2-amine] |
| 10 to 100 nM | 100 to 1000 nM | C[C@@H](O)c1nc2cnc3[nH]ccc3c2n1C1CCN(CC#N)C1 (stereo partly drawn) [LXS48, 2-(3-(2-((R)-1-Hydroxyethyl)imidazo[4,5-d]pyrrolo[2,3-b]pyridin-1(6H)-yl)pyrrolidin-1-yl)acetonitrile] |
| 10 to 100 nM | 100 to 1000 nM | C[C@@H](O)c1nc2cnc3[nH]ccc3c2n1C1CCN(CCC#N)C1 (stereo partly drawn) [LXS49, 3-(3-(2-((R)-1-Hydroxyethyl)imidazo[4,5-d]pyrrolo[2,3-b]pyridin-1(6H)-yl)pyrrolidin-1-yl)propanenitrile] |
| 100 to 1000 nM | < 10 nM | Cc1ccc(-c2nc3cnc4[nH]ccc4c3n2-c2cnn(CCC#N)c2)o1 [LXS50, 3-(4-(2-(5-Methylfuran-2-yl)imidazo[4,5-d]pyrrolo[2,3-b]pyridin-1(6H)-yl)-1H-pyrazol-1-yl)propanenitrile] |
| 10 to 100 nM | 10 to 100 nM | N#CCCN1CCC(n2c(-c3ccc(CO)o3)nc3cnc4[nH]ccc4c32)C1 (stereo not drawn) [LXS51, 3-(3-(2-(5-(Hydroxymethyl)furan-2-yl)imidazo[4,5-d]pyrrolo[2,3-b]pyridin-1(6H)-yl)pyrrolidin-1-yl)propanenitrile] |
| 100 to 1000 nM | 10 to 100 nM | N#CCN1CCC(n2c(-c3ccc(CO)o3)nc3cnc4[nH]ccc4c32)C1 (stereo not drawn) [LXS52, 2-(3-(2-(5-(hydroxymethyl)furan-2-yl)imidazo[4,5-d]pyrrolo[2,3-b]pyridin-1(6H)-yl)pyrrolidin-1-yl)acetonitrile] |
